Results published in PubChem BioAssay AID248 (DTP/NCI, 2004).
“And” between values parts separate entries of the source, which are not always exact repeats. Identical values can stand only once. Inconclusive results and toxic doses are left out. Cut-off read from the data, not from the text of the source: active = T/C of 150% or more; inactive = T/C below 125%.

Tested on: L1210 leukemia ip in BDF1 mice, survival T/C
Assay: NCI In Vivo Anticancer Drug Screen. Data for tumor model L1210 Leukemia (intraperitoneal) in B6D2F1 (BDF1) mice
Conditions: endpoint: mean survival time, higher = longer survival
Outline: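 Tumor was transplanted into mice, which were then dosed with test compound or vehicle alone. Survival was recorded for each group, and the treated figure was expressed relative to the control figure.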

[1] = dose: 12.5 mg/kg/injection, schedule: Q01DX009 (ip), vehicle: Klucel (hydroxypropylcellulose) (HPC)
[2] = dose: 100.0 mg/kg/injection, schedule: Q04DX003 (ip), vehicle: saline
[3] = dose: 200.0 mg/kg/injection, schedule: Q04DX003 (ip), vehicle: saline
[4] = dose: 400.0 mg/kg/injection, schedule: Q04DX003 (ip), vehicle: saline
[5] = dose: 100.0 mg/kg/injection, schedule: Q01DX009 (ip), vehicle: Klucel (hydroxypropylcellulose) (HPC)
[6] = dose: 100.0 mg/kg/injection, schedule: Q04DX003 (ip), vehicle: Klucel (hydroxypropylcellulose) (HPC)
[7] = dose: 200.0 mg/kg/injection, schedule: Q01DX009 (ip), vehicle: Klucel (hydroxypropylcellulose) (HPC)
[8] = dose: 200.0 mg/kg/injection, schedule: Q04DX003 (ip), vehicle: Klucel (hydroxypropylcellulose) (HPC)
[9] = dose: 400.0 mg/kg/injection, schedule: Q01DX009 (ip), vehicle: Klucel (hydroxypropylcellulose) (HPC)
[10] = dose: 400.0 mg/kg/injection, schedule: Q04DX003 (ip), vehicle: Klucel (hydroxypropylcellulose) (HPC)
[11] = dose: 100.0 mg/kg/injection, schedule: Q01DX001 (ip), vehicle: saline
[12] = dose: 200.0 mg/kg/injection, schedule: Q01DX001 (ip), vehicle: saline
[13] = dose: 400.0 mg/kg/injection, schedule: Q01DX001 (ip), vehicle: saline
[14] = dose: 100.0 mg/kg/injection, schedule: Q01DX009 (ip), vehicle: saline with Tween-80

Measured: T/C

O=C1C=CC(=NBr)C=C1
inactive: [1] 89 % of control | dose: 25.0 mg/kg/injection, schedule: Q01DX009 (ip), vehicle: Klucel (hydroxypropylcellulose) (HPC) 92 % of control | dose: 50.0 mg/kg/injection, schedule: Q01DX009 (ip), vehicle: Klucel (hydroxypropylcellulose) (HPC) 89 % of control

C=CC1CC(=O)N1C (centres undefined)
inactive: [2] 100 % of control | [3] 110 % of control | [4] 112 % of control

CC[CH2][Pb]([CH2]CC)([CH2]CC)[O]C(=O)CCl
inactive: dose: 3.0 mg/kg/injection, schedule: Q01DX009 (ip), vehicle: Klucel (hydroxypropylcellulose) (HPC) 106 % of control | dose: 6.0 mg/kg/injection, schedule: Q01DX009 (ip), vehicle: Klucel (hydroxypropylcellulose) (HPC) 101 % of control | [1] 96 % of control

CC(=O)SCCNCCNC1CC2CCC1C2 (centres undefined)
inactive: dose: 1.25 mg/kg/injection, schedule: Q01DX009 (ip), vehicle: saline 94 % of control | dose: 2.5 mg/kg/injection, schedule: Q01DX009 (ip), vehicle: saline 97 % of control | dose: 5.0 mg/kg/injection, schedule: Q01DX009 (ip), vehicle: saline 100 % of control | dose: 7.2 mg/kg/injection, schedule: Q01DX009 (ip), vehicle: saline 94 % of control | dose: 10.0 mg/kg/injection, schedule: Q01DX001 (ip), vehicle: saline 92 % of control | dose: 10.0 mg/kg/injection, schedule: Q04DX003 (ip), vehicle: saline 99 % of control | dose: 11.0 mg/kg/injection, schedule: Q01DX009 (ip), vehicle: saline 92 % of control | dose: 16.5 mg/kg/injection, schedule: Q01DX009 (ip), vehicle: saline 90 % of control | dose: 20.0 mg/kg/injection, schedule: Q01DX001 (ip), vehicle: saline 90 % of control | dose: 23.0 mg/kg/injection, schedule: Q01DX009 (ip), vehicle: saline 88 % of control | dose: 40.0 mg/kg/injection, schedule: Q01DX001 (ip), vehicle: saline 95 % of control

CCCCC(C(C)=O)C(C)C (centres undefined)
inactive: [5] 94 % of control | [6] 100 % of control | [7] 91 % of control | [8] 96 % of control | [9] 95 % of control | [10] 92 % of control

O=C(C(Br)C(Br)c1ccccc1)C(Br)C(Br)c1ccccc1 (centres undefined)
inactive: dose: 100.0 mg/kg/injection, schedule: Q04DX003 (ip), vehicle: saline sonified 101 % of control | dose: 200.0 mg/kg/injection, schedule: Q04DX003 (ip), vehicle: saline sonified 105 % of control | dose: 400.0 mg/kg/injection, schedule: Q04DX003 (ip), vehicle: saline sonified 97 % of control

NC(N)=NCCCCCC(=O)Oc1ccc([N+](=O)[O-])cc1
inactive: dose: 50.0 mg/kg/injection, schedule: Q01DX009 (ip), vehicle: saline 105 % of control | dose: 100.0 mg/kg/injection, schedule: Q01DX009 (ip), vehicle: saline 99 % of control and 100 % of control | [2] 92 % of control | dose: 200.0 mg/kg/injection, schedule: Q01DX009 (ip), vehicle: saline 100 % of control and 101 % of control | [3] 92 % of control

O=C(C(=O)c1ccc(O)cc1O)c1ccc(O)cc1O
inactive: [11] 97 % of control | [12] 97 % of control | [13] 97 % of control

CNC(=S)N/N=C/CSC/C=N/NC(=S)NC
inactive: dose: 0.2 mg/kg/injection, schedule: Q03HX024 (ip), vehicle: saline with Tween-80 100 % of control | dose: 0.39 mg/kg/injection, schedule: Q03HX024 (ip), vehicle: saline with Tween-80 97 % of control | dose: 0.78 mg/kg/injection, schedule: Q03HX024 (ip), vehicle: saline with Tween-80 93 % of control | dose: 1.56 mg/kg/injection, schedule: Q03HX024 (ip), vehicle: saline with Tween-80 108 % of control | dose: 3.13 mg/kg/injection, schedule: Q03HX024 (ip), vehicle: saline with Tween-80 100 % of control

CC1CC2(C)C(CC1=O)CC(C)C1C3CCC(O)C3(C)CCC12 (centres undefined)
inactive: [14] 92 % of control | dose: 200.0 mg/kg/injection, schedule: Q01DX009 (ip), vehicle: saline with Tween-80 96 % of control | dose: 400.0 mg/kg/injection, schedule: Q01DX009 (ip), vehicle: saline with Tween-80 94 % of control

O=C1c2ccccc2C(=O)c2c(O)c(N3CCOCC3)cc(O)c21
inactive: dose: 0.25 mg/kg/injection, schedule: Q04DX003 (ip), vehicle: water 90 % of control | dose: 0.5 mg/kg/injection, schedule: Q04DX003 (ip), vehicle: water 102 % of control | dose: 1.0 mg/kg/injection, schedule: Q04DX003 (ip), vehicle: water 110 % of control | dose: 2.0 mg/kg/injection, schedule: Q04DX003 (ip), vehicle: water 100 % of control | dose: 4.0 mg/kg/injection, schedule: Q04DX003 (ip), vehicle: water 102 % of control | dose: 8.0 mg/kg/injection, schedule: Q04DX003 (ip), vehicle: water 100 % of control | dose: 16.0 mg/kg/injection, schedule: Q04DX003 (ip), vehicle: saline 102 % of control | dose: 16.0 mg/kg/injection, schedule: Q04DX003 (ip), vehicle: water 100 % of control | dose: 32.0 mg/kg/injection, schedule: Q04DX003 (ip), vehicle: saline 110 % of control | dose: 64.0 mg/kg/injection, schedule: Q04DX003 (ip), vehicle: saline 102 % of control

CCCCCCC(O)CCCCCCCCCCCO (centres undefined)
inactive: [5] 108 % of control | [7] 97 % of control | [9] 103 % of control

BrC1(Br)CC1(c1ccccc1)c1ccccc1
inactive: [5] 93 % of control | [6] 107 % of control | [2] 107 % of control | [7] 97 % of control | [8] 107 % of control | [3] 107 % of control | [9] 101 % of control | [10] 97 % of control | [4] 97 % of control

CCCc1c(OCC)c(OC)c2c3c(c(-c4c(C)cc5c(CCC)c(OCC)c(OC)c6c5c4OC6NNc4ccccc4)c(C)cc13)OC2NNc1ccccc1 (centres undefined)
inactive: dose: 75.0 mg/kg/injection, schedule: Q01DX001 (ip), vehicle: Klucel (hydroxypropylcellulose) (HPC) 98 % of control | dose: 150.0 mg/kg/injection, schedule: Q01DX001 (ip), vehicle: Klucel (hydroxypropylcellulose) (HPC) 93 % of control | dose: 300.0 mg/kg/injection, schedule: Q01DX001 (ip), vehicle: Klucel (hydroxypropylcellulose) (HPC) 91 % of control | dose: 300.0 mg/kg/injection, schedule: Q04DX003 (ip), vehicle: Klucel (hydroxypropylcellulose) (HPC) 87 % of control

O=C(CSC1=NCCN1)c1ccccc1
inactive: [14] 101 % of control

Cc1ccc(N=Nc2c(N)ccc3ccccc23)cc1
inactive: dose: 100.0 mg/kg/injection, schedule: Q01DX001 (ip), vehicle: other 100 % of control | dose: 200.0 mg/kg/injection, schedule: Q01DX001 (ip), vehicle: other 100 % of control

CCOC(=O)c1ccc[n+](Cc2ccccc2)c1
inactive: dose: 75.0 mg/kg/injection, schedule: Q01DX001 (ip), vehicle: saline 101 % of control | dose: 150.0 mg/kg/injection, schedule: Q01DX001 (ip), vehicle: saline 106 % of control | dose: 300.0 mg/kg/injection, schedule: Q01DX001 (ip), vehicle: saline 98 % of control

COC12OCC(O)C1OC(=O)C2O (centres undefined)
inactive: dose: 50.0 mg/kg/injection, schedule: Q04DX002 (ip), vehicle: saline 91 % of control | dose: 100.0 mg/kg/injection, schedule: Q04DX002 (ip), vehicle: saline 91 % of control | dose: 200.0 mg/kg/injection, schedule: Q04DX002 (ip), vehicle: saline 95 % of control

CC(C)(C)CC(C)(C)N(CSc1ccc([N+](=O)[O-])cc1)CSc1ccc([N+](=O)[O-])cc1
inactive: [11] 102 % of control | [12] 94 % of control | [13] 94 % of control

ClC(Cl)(Cl)c1ccc(C(SCc2ccccc2)SCc2ccccc2)cc1
inactive: dose: 100.0 mg/kg/injection, schedule: Q04DX003 (ip), vehicle: saline with Tween-80 86 % of control | dose: 200.0 mg/kg/injection, schedule: Q04DX003 (ip), vehicle: saline with Tween-80 89 % of control | dose: 400.0 mg/kg/injection, schedule: Q04DX003 (ip), vehicle: saline with Tween-80 86 % of control

CCOCC1COC(c2ccc3c(c2)OCO3)O1 (centres undefined)
inactive: dose: 222.0 mg/kg/injection, schedule: Q01DX Z (ip), vehicle: methylcellulose (MC) 102 % of control | dose: 333.0 mg/kg/injection, schedule: Q01DX Z (ip), vehicle: methylcellulose (MC) 104 % of control | dose: 500.0 mg/kg/injection, schedule: Q01DX Z (ip), vehicle: methylcellulose (MC) 102 % of control
